Experimental findings from patent EP2557075A1, “New triazene compounds for treating cancer” (Trin Therapeutics GmbH, priority 2011, dated 2013) are described below.

One data set relates to MDA-MB231. Briefly: IC50 of triazenes in MDA-MB231 cell line (Experiment 3). Type of data set: cell-based. As to conditions: Homo sapiens, MDA-MB-231; IC50 für die MDA-MB231 gemäß Experiment 3; used as incubation concentration for PBC. An excerpt: Die nachfolgenden Experimente 3 und 4 zeigen, dass die erfindungsgemäßen neuen Triazenverbindungen eine vergleichbare Anti-Tumorwirkung (IC50) in zahlreichen Krebszelllinien wie der HepG2 (Leber), HCT8 (Darm), DU-145 (Prostata), MCF-7 und MDA-MB-231 (Brust) und MiaPaca-2 (Bauchspeicheldrüse) bei bis zu 100fach niedrigeren Konzentrationen zeigen als vergleichbare Triazene wie DTIC, TMZ oder Substanzen wie sie in der WO 2009/004060 und der DE 1 7931 1 5 beschrieben sind.
Verschiedene Triazene wie erfindungsgemäße Verbindungen nach Beispiel 1, DTIC, TMZ sowie Verbindungen nach Präparat 2 und 5 (entsprechend Verbindungen nach Präparat 2 und Beispiel 2a jeweils der WO 2009/004060) sowie Verbindungen nach Beispiel 33 der DE1793115 wurden in DMSO bzw. Wasser gelöst.
(§1) Periphäre Blutzellen (PBC) werden jeweils mit der IC50 für die MDA-MB231 gemäß Experiment 3 der entsprechenden Substanzen inkubiert. Es wird gezeigt, dass die erfindungsgemäße Verbindung nach Beispiel 1 nicht mehr DNA-Schädigungen in den PBC erzeugt als eine Negativkontrolle, […]

The subject of data set [1] is periphere Blutzellen (PBC). As to the kind of experiment: Cell damage (apoptosis rate, CaspACE assay, flow cytometry) in peripheral blood cells (Experiment 5). Type of data set: cell-based. The following applies: for % Zellen in Apoptose: Versuch 1 Lymphozyten, 24 Stunden incubation at the IC50 for MDA-MB231.
Description: Um die therapeutische Breite der neuen Substanzen abschätzen zu können, wurden periphere Blutzellen (PBC) und hämatologische Zellen (Nalm-6; CEM und U-937) für 24 Stunden mit unterschiedlichen Dosen verschiedener Triazenverbindungen bzw. Doxorubicin als positive Kontrolle für die hämatologischen Zelllinien inkubiert. Das Maß der Zellschädigung (Apoptoserate) wurde mittels CaspACE™ Assay (am Durchflusszytometer) bestimmt.
Verschiedene Triazene wie erfindungsgemäße Verbindungen nach Beispiel 1, TMZ sowie Verbindungen nach Präparat 2 und 5 (entsprechend Verbindungen nach Präparat 2 und Beispiel 2a jeweils der WO 2009/004060) wurden in DMSO bzw. Wasser entsprechend den Angaben in Abbildung 22 gelöst.
as §1
(In general: A flow cytometer gives signals particle by particle.)

Another data set concerns HL-60. As to the kind of experiment: Growth inhibition (IC50) in leukaemic HL-60 cells (Experiment 7). Type of data set: cell-based. The following applies: Homo sapiens, HL-60, 24 Stunden. An excerpt: (§2) Hämatologische Zellen (CEM, HL-60) wurden für 24 Stunden mit unterschiedlichen Dosen verschiedener Triazenverbindungen inkubiert, um die IC50 zu bestimmen.
Another data set relates to CEM. As to the kind of experiment: Growth inhibition (IC50) in leukaemic CEM cells (Experiment 7). Type of data set: cell-based. As to conditions: Homo sapiens, CCRF-CEM, 24 Stunden.
Description: as §2

Data set [2] can be described thus: Formulation trials for intravenous application (Experiment 8). Type of data set: physicochemical. As to the method: Um die Testergebnisse aus Experiment 7 in einem in-vivo Xenograft Modell zu bestätigen, wurden Formulierungsversuche mit Verbindungen nach Beispiel 1 sowie der Verbindung nach Beispiel 2 aus DE 1 793 1 15, als den wirksamsten Verbindungen aus Experiment 7, unternommen.
15mg der Verbindung nach Beispiel 1 werden in 30µL DMSO ([…]) gelöst. Diese Stocklösung wird in 270µL 1 M Na2CO3 Lösung gegeben und nur leicht geschwenkt, nicht aber mittels Ultraschallbad behandelt.
Gleichermaßen sollte eine Formulierung für Verbindungen nach Beispiel 2 aus DE 1 7 93 1 15 hergestellt werden. Hier wurden 15µL der Verbindung nach Beispiel 2 vorgelegt. Bei einer Dichte von 1,08g/ml entsprach dies 16,2mg der Verbindung nach Beispiel 2. Dazu wurden 32,4µL DMSO gegeben. […] Sodann wurden 90µL einer frisch hergestellten 1 molaren Na2CO3 Lösung vorgelegt und 10µL der Lösung der Verbindung nach Beispiel 2 hinzugegeben. […] Auch mittels Ultraschallbad konnte keine Auflösung des erzeugten Niederschlags herbeiführen.

The next data set concerns MCF-7-Zellen. As to the kind of experiment: Intracellular metabolisation of triazenes in MCF-7 cell culture (Experiment 1). Type of data set: in vitro ADME. The following applies: MCF-7, 100nmol/ml, 100% FCS, binnen 20 Stunden. How it is done: Es wird gezeigt, dass Verbindungen nach Beispiel 1 schneller und in größerer Menge intrazellulär metabolisiert werden als die als Vergleichssubstanzen eingesetzten Verbindungen nach Präparat 2 und 5 (entsprechend Verbindungen nach Präparat 2 und Beispiel 2a jeweils der WO 2009/004060).
Die getesteten Verbindungen wurden wie folgt gelöst: • Erfindungsgemäße Verbindung: • Beispiel 1 : in 20 mg/ml DMSO
Vergleichssubstanzen: • Präparat 2: in 50mg/ml DMSO, • Präparat 5: in 50mg/ml Wasser.
Alle drei Substanzen wurden äquimolar in einer Dosis von 100nmol/ml auf 1 x 10^7 HepG2 bzw. MCF-7-Zellen gegeben. Als Zellkulturmedium wurde 100% fötales Kälberserum (FCS) verwendet. Für den Versuch wurde der Gehalt aus Ausgangsprodukt und Metaboliten im Zellüberstand nach 1, 3 und 6 (HepG2) bzw. 1,3 und 20 Stunden (MCF-7) Inkubationszeit ermittelt. Alle drei Substanzen zeigten in Kontrollversuchen mit 100% FCS nach 40 Stunden metabolische Stabilität.

Setting [3] is: mean of Exp. 1-5, read-out: IC50 Mittelwert.
The mark [4] stands for this setting: mean of Exp. 1-4, read-out: IC50 Mittelwert.

Like-named read-outs stand apart in the source and are kept apart here.

Consider `CN(C)N=Nc1ccc(C(=O)c2ccccc2)cc1` [Beispiel 2 der DE 1793115], for which the IC50 in the data set with MDA-MB231 is 25.5 µM; with HL-60 (setting [3]) it was 10 µM; in the data set with HL-60 (read-out: IC50 Exp. 1) it was 8.69 µM; in the data set with HL-60 (read-out: IC50 Exp. 2), 11.8 µM; in the data set with HL-60 (read-out: IC50 Exp. 3), 11.1 µM; with HL-60 (read-out: IC50 Exp. 4), 9.47 µM. The IC50 in the data set on HL-60 (read-out: IC50 Exp. 5) came out at 9.08 µM; in the data set on CEM (setting [4]), 10 µM; in the data set on CEM (read-out: IC50 Exp. 1) it was 10.3 µM; in the data set with CEM (read-out: IC50 Exp. 2), 10.3 µM; in the data set on CEM (read-out: IC50 Exp. 3) it was 8.69 µM; in the data set on CEM (read-out: IC50 Exp. 4) it was 10.7 µM. The “% Zellen in Apoptose” value in data set [1] is recorded as 6,570%. The “Löslichkeit in DMSO” value in data set [2] (16,2mg in 32,4µL DMSO) is “löste sich vollständig”. Moreover, in data set [2] (DMSO stock solution given into 1 M Na2CO3 Lösung), the “Löslichkeit in der Formulierung” value is recorded as “Sofort fiel weißer Niederschlag aus”. Besides, in data set [2] (Lösungsmittel wie Cremophor, PEG400, Tween80, Poloxamer), the “stabile und verträgliche Formulierung” value is listed as “nicht erreicht werden konnte”.
As to `CN(C)/N=N/c1[nH]cnc1C(N)=O` [Dacarbazine], 625 µM corresponded to half-maximal inhibition with MDA-MB231 (IC50). Besides, the “% Zellen in Apoptose” value in data set [1] is given as 8,260%.
For the compound `COc1cccc2c1C(=O)c1c(O)c3c(c(O)c1C2=O)C[C@@](O)(C(=O)CO)C[C@@H]3O[C@H]1C[C@H](N)[C@H](O)[C@H](C)O1` [Doxorubicin], the IC50 with HL-60 (read-out: IC50 Exp. 1) amounted to 0.0012 µM; with HL-60 (read-out: IC50 Exp. 2), 0.00116 µM; in the data set on HL-60 (read-out: IC50 Exp. 3), 0.000662 µM; with HL-60 (read-out: IC50 Exp. 4), 0.00131 µM; with HL-60 (read-out: IC50 Exp. 5), 0.00134 µM; with CEM (setting [4]) it was 8510 µM. For the same compound, the IC50 with CEM (read-out: IC50 Exp. 1) is 6810 µM; in the data set with CEM (read-out: IC50 Exp. 2), 5890 µM; in the data set on CEM (read-out: IC50 Exp. 3), 9940 µM; in the data set on CEM (read-out: IC50 Exp. 4) it was 114 µM.
On to `CN(C)N=Nc1ccc(C(=O)c2ccc(OCCC(=O)NCC(=O)O)cc2)cc1` [Präparat 5], for which the metabolisiert in the data set on MCF-7-Zellen is recorded as about 30%. Also, the IC50 in the data set with HL-60 (setting [3]) was 1190 µM; in the data set with HL-60 (read-out: IC50 Exp. 1) it was 829 µM; in the data set with HL-60 (read-out: IC50 Exp. 2) it was 879 µM; in the data set on HL-60 (read-out: IC50 Exp. 3), 1530 µM; in the data set with HL-60 (read-out: IC50 Exp. 4), 1510 µM; in the data set on CEM (setting [4]) it was 735 µM. In addition, the IC50 was found to be 754 µM with CEM (read-out: IC50 Exp. 1), 879 µM in the data set with CEM (read-out: IC50 Exp. 2), 678 µM in the data set with CEM (read-out: IC50 Exp. 3) and 628 µM in the data set on CEM (read-out: IC50 Exp. 4).
As for `Cn1nnc2c(C(N)=O)ncn2c1=O` [Temozolomide, 4-methyl-5-oxo-2,3,4,6,8-pentazabicyclo [4.3.0] nona-2,7,9-triene-9-carboxamide], in the data set on MDA-MB231, the midpoint of inhibition, the IC50, lay at 515 µM. Also, the “Zellschädigung (Apoptoserate) vs. Negativkontrolle” value in data set [1] (PBC, 24 stündige Inkubation) is given as “Anstieg der Apoptoserate”. For the same compound, the “% Zellen in Apoptose” value in data set [1] was 15,320%.

As usually defined, the IC50 is the concentration needed to halve the response being measured.
